We go through 3 compounds from patent publication EP4810052A2, “HCRHR2 SELECTIVE POLYPEPTIDES” (Gubra A/S, priority 2023, dated 2026).

Where two headings read alike, the source gives them in different places. Starred links: 1 amine or outer side, 2 acyl side, 3 side chain; linkers in the order of their positions; H or OH if unused. Non-standard residues stand in square brackets, D forms with d. Residues, ends and D or L forms follow the SMILES beside them. Groups on a side chain read outwards from the residue. *: point of attachment. C20 diacid = O=C(O)CCCCCCCCCCCCCCCCCCC(=O)*; γGlu = O=C(O)[C@H](CCC(=O)[*:2])N[*:1]; NMeI = CC[C@H](C)[C@H](NC)C(=O)O; Nle = CCCC[C@H](N)C(=O)O; AEEA = NCCOCCOCC(=O)O; Aib = CC(C)(N)C(=O)O

The target in one series is T1, hCRHR1 (Homo sapiens, UniProt P34998).
T1 sequence (P34998 24-415): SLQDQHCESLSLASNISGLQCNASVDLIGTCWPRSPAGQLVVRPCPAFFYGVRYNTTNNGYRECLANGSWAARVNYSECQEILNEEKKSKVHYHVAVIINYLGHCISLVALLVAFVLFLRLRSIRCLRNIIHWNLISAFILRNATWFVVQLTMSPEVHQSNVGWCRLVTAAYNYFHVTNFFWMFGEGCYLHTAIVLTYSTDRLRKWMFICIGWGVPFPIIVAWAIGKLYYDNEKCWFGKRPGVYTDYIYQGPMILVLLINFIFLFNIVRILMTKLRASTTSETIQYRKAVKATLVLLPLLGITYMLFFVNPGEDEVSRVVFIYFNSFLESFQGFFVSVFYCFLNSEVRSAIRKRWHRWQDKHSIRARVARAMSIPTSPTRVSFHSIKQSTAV
The series is described as follows: HTRF cAMP assay, determination of hCRHR1 potency (peptide libraries 5 conc., purified peptides 11 conc.). The class given is cell-based. In a few lines: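 Cellular cAMP was read by time-resolved FRET between d2-labelled cAMP and cryptate anti-cAMP antibody. The cells were freshly thawed suspension CHO-K1 cells stably expressing human CRHR1.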
For orientation: TR-FRET usually uses a lanthanide donor and a delayed reading to cut background.

The nature of series [1]: Chemical stability of purified peptides (RP-UHPLC main peak purity loss). The series is classed as physicochemical. In a few lines:
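Purity loss is the drop in RP-UHPLC main-peak area fraction (215 nm detection, C8 column at 50 °C) from time zero to day 14 and/or day 28 at 40 °C. Samples held roughly 1.0 mg/ml peptide in 50 mM phosphate, pH 7.5, with other pH targets also tested.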

Another series in a line: PK in mice. The series is classed as in vivo. More on the design: T½ / MRT: unit: h. The note with it: for half-life: read-out: T½ (converted). Here is the method: Lean male NMRI/RjHan mice were obtained from JanVier (JanVier Labs, France) at 6 weeks of age. The animals were single housed under a 12/12 h dark-light cycle, light off at 3 PM. Room temperature was controlled to 22°C ± 1°C, with 60 % ± 20% humidity. Animals had ad libitum access to regular rodent chow (Altromin 1324, Brogaarden, Denmark) and tap water.
After 2 weeks of acclimatization, the animals were randomized into treatment groups (n=9 per group) based on body weight. Animals were dosed IV with one peptide and SC with another peptide (15 or 50 nmol/kg) Plasma samples were collected for PK analysis at times 0.17, 1, 3, 6, 24, 30, 48, 72 and 96 hours post dosing in a sparse sampling design with 3 mice per group per timepoint. Plasma samples were analyzed using LC-MSMS and PK parameters were estimated by Non-Compartmental Analysis (NCA).

Another series deals with pCRHR1. The series is described as follows: cAMP potency, transiently transfected CHO-K1 cells, pCRHR1. The following applies: transiently transfected CHO-K1, average n=3; read-out: Transient cell system EC50 (nM) pCRHR 1. The series is classed as cell-based, pig. As for the experimental part: (§1) Selected peptides were tested for potency on different species (mouse, rat, porcine) using transiently transfected CHO-K1 cells using the general procedure.

In another series the test system is pCRHR2. The series is described as follows: cAMP potency, transiently transfected CHO-K1 cells, pCRHR2. The series is classed as cell-based, pig. The note with it: transiently transfected CHO-K1, average n=3; read-out: Transient cell system EC50 (nM) pCR HR2. Here is the method: as §1
Where [2] appears, read: Table 4, library peptides having X^38 = Nle, read-out: hCRHR1 pEC50 (converted).
The mark [3] stands for this setting: Table 5, purified peptides, read-out: hCRHR1 EC50.
[4] abbreviates: male, NMRI/RjHan, in vivo, iv, Mouse, 15 nmol/kg i.v.
[5] abbreviates: male, NMRI/RjHan, in vivo, sc, Mouse, 15 nmol/kg s.c.

For the compound `CC[C@H](C)[C@H](N)C(=O)N[C@H](C(=O)N[C@@H](CC(C)C)C(=O)N[C@@H](CO)C(=O)N[C@@H](CC(C)C)C(=O)N[C@@H](CC(=O)O)C(=O)N[C@H](C(=O)N1CCC[C@H]1C(=O)N[C@H](C(=O)NCC(=O)N[C@@H](CC(C)C)C(=O)N[C@@H](CC(C)C)C(=O)N[C@@H](CCC(N)=O)C(=O)N[C@H](C(=O)N[C@@H](CC(C)C)C(=O)N[C@@H](CC(C)C)C(=O)N[C@@H](CCC(=O)O)C(=O)N[C@@H](CCC(N)=O)C(=O)N[C@@H](C)C(=O)N[C@@H](CCCNC(=N)N)C(=O)N[C@@H](C)C(=O)N[C@@H](CCCNC(=N)N)C(=O)N[C@@H](C)C(=O)N[C@@H](C)C(=O)N[C@@H](CCCNC(=N)N)C(=O)N[C@@H](CCC(=O)O)C(=O)N[C@@H](CCC(N)=O)C(=O)N[C@@H](C)C(=O)N[C@H](C(=O)N[C@@H](CCCCNC(=O)COCCOCCNC(=O)COCCOCCNC(=O)CC[C@H](NC(=O)CC[C@H](NC(=O)CCCCCCCCCCCCCCCCCCC(=O)O)C(=O)O)C(=O)O)C(=O)N[C@@H](CC(N)=O)C(=O)N[C@@H](C)C(=O)N[C@@H](CCC(=O)O)C(=O)N[C@H](C(=O)N[C@@H](CC(C)C)C(=O)N[C@@H](C)C(=O)N[C@@H](CCC(=O)O)C(=O)N[C@H](C(N)=O)C(C)C)[C@@H](C)CC)[C@@H](C)O)[C@@H](C)CC)[C@@H](C)CC)C(C)C)C(C)C` [SEQ ID NO: 4] (H-IVLSLDVPIGLLQILLEQARARAAREQATK([AEEA-AEEA-γGlu-γGlu-C20 diacid])NAEILAEV-NH2), at hCRHR1 (purified peptides, CHO-K1 cells stably expressing hCRHR1, cAMP HTRF, read-out: hCRHR1 EC50), the EC50 was greater than 5000 nM. Besides, the “Chemical stability at pH 7.5 after 14 days at 40°C (% degradation)” value in series [1] (pH 7.5, 40°C, 14 days, first value of cell) is reported as -1.3%. Besides, the “Chemical stability at pH 7.5 after 28 days at 40°C (% degradation)” value in series [1] (pH 7.5, 40°C, 28 days, second value of cell) was -3.9%. In addition, in the series “PK in mice” (Mouse), the MRT came out at 18.2 and the T½ amounted to 14.8.
On to `CCCC[C@H](NC(=O)[C@@H](NC(=O)[C@H](CCC(=O)O)NC(=O)[C@H](C)NC(=O)[C@H](CC(N)=O)NC(=O)C(C)(C)NC(=O)[C@H](CCCCNC(=O)COCCOCCNC(=O)COCCOCCNC(=O)CC[C@H](NC(=O)CC[C@H](NC(=O)CCCCCCCCCCCCCCCCCCC(=O)O)C(=O)O)C(=O)O)NC(=O)[C@H](C)NC(=O)[C@H](CCC(N)=O)NC(=O)[C@H](CCC(=O)O)NC(=O)[C@H](CCCNC(=N)N)NC(=O)[C@H](C)NC(=O)[C@H](C)NC(=O)[C@H](CCCNC(=N)N)NC(=O)[C@H](C)NC(=O)[C@H](CCCNC(=N)N)NC(=O)[C@H](C)NC(=O)[C@H](CCC(N)=O)NC(=O)[C@H](CO)NC(=O)[C@H](CC(C)C)NC(=O)[C@H](CC(C)C)NC(=O)[C@@H](NC(=O)[C@H](CCC(N)=O)NC(=O)[C@H](CC(C)C)NC(=O)[C@H](CC(C)C)NC(=O)CNC(=O)[C@@H](NC(=O)[C@@H]1CCCN1C(=O)[C@@H](NC(=O)[C@H](CC(=O)O)NC(=O)[C@H](CC(C)C)NC(=O)[C@H](CO)NC(=O)[C@H](CC(C)C)NC(=O)[C@@H](NC(=O)[C@@H](NC)[C@@H](C)CC)C(C)C)C(C)C)[C@@H](C)CC)[C@@H](C)CC)[C@@H](C)CC)C(=O)N[C@@H](C)C(=O)N[C@@H](CCC(=O)O)C(=O)N[C@H](C(N)=O)C(C)C` [compound 132] (H-[NMeI]VLSLDVPIGLLQILLSQARARAAREQAK([AEEA-AEEA-γGlu-γGlu-C20 diacid])[Aib]NAEI[Nle]AEV-NH2), for which the EC50 at hCRHR1 (setting [2]) was 794 nM. The EC50 at hCRHR1 (setting [3]) was greater than 5000 nM. The “Chemical stability at pH 7.5 after 14 days at 40°C (% degradation)” value in series [1] (pH 7.5, 14 days, 40°C) is on record as -1.6%. Besides, in series [1] (pH 7.5, 28 days, 40°C), the “Chemical stability at pH 7.5 after 28 days at 40°C (% degradation)” value was -1.3%. Moreover, in the series “PK in mice” (Mouse), the MRT came out at 16 and the T½ is 11.2.
Usually bioavailability stands for the share of a dose that reaches the circulation, judged against a reference dose that is usually intravenous. What is called clearance is a measure of how efficiently the substance is removed, as volume per time. What is called Cmax is the peak of the concentration-time curve. For orientation: Tmax means the time from dosing to the highest level. Regarding `CCCC[C@H](NC(=O)[C@@H](NC(=O)[C@H](CCC(=O)O)NC(=O)C(C)(C)NC(=O)[C@H](CC(N)=O)NC(=O)[C@@H](NC(=O)[C@H](CCCCNC(=O)COCCOCCNC(=O)COCCOCCNC(=O)CC[C@H](NC(=O)CC[C@H](NC(=O)CCCCCCCCCCCCCCCCCCC(=O)O)C(=O)O)C(=O)O)NC(=O)[C@H](C)NC(=O)[C@H](CCC(N)=O)NC(=O)[C@H](CCC(=O)O)NC(=O)[C@H](CCCNC(=N)N)NC(=O)[C@H](C)NC(=O)[C@H](C)NC(=O)[C@H](CCCNC(=N)N)NC(=O)[C@H](C)NC(=O)[C@H](CCCNC(=N)N)NC(=O)[C@H](C)NC(=O)[C@H](CCC(N)=O)NC(=O)[C@H](CO)NC(=O)[C@H](CC(C)C)NC(=O)[C@H](CC(C)C)NC(=O)[C@@H](NC(=O)[C@H](CCC(N)=O)NC(=O)[C@H](CC(C)C)NC(=O)[C@H](CC(C)C)NC(=O)CNC(=O)[C@@H](NC(=O)[C@@H]1CCCN1C(=O)[C@@H](NC(=O)[C@H](CC(=O)O)NC(=O)[C@H](CC(C)C)NC(=O)[C@H](CO)NC(=O)[C@H](CC(C)C)NC(=O)[C@@H](NC(=O)[C@@H](NC)[C@@H](C)CC)C(C)C)C(C)C)[C@@H](C)CC)[C@@H](C)CC)[C@@H](C)O)[C@@H](C)CC)C(=O)N[C@@H](C)C(=O)N[C@@H](CCC(=O)O)C(=O)N[C@H](C(N)=O)C(C)C` [SEQ ID NO: 215] (H-[NMeI]VLSLDVPIGLLQILLSQARARAAREQAK([AEEA-AEEA-γGlu-γGlu-C20 diacid])TN[Aib]EI[Nle]AEV-NH2), the EC50 on hCRHR1 (setting [2]) was 3160 nM; on hCRHR1 (setting [3]) it was greater than 5000 nM; at hCRHR1 (stable cell system, Table 10, read-out: Stable EC50 (nM) hCRHR 1), greater than 5000 nM; with pCRHR1 it was greater than 1000 nM; in the series on pCRHR2 it was 0.017 nM. Also, the “Purity loss (RP-UPLC analysis) T14-T0 (%)” value in series [1] (pH 7.0, 40°C, 14 days) is given as 0.2%; in series [1] (pH 7.5, 40°C, 14 days), 0.1%; in series [1] (pH 8.0, 40°C, 14 days), -0.4%. The “Purity loss (RP-UPLC analysis) T28-T0 (%)” value in series [1] (pH 7.0, 40°C, 28 days) is listed as -0.3%; in series [1] (pH 7.5, 40°C, 28 days), -0.1%; in series [1] (pH 8.0, 40°C, 28 days), -0.7%. The “Chemical stability at pH 7.5 after 14 days at 40°C (% degradation)” value in series [1] (pH 7.5, 14 days, 40°C) is -0.92%. For the same compound, in series [1] (pH 7.5, 28 days, 40°C), the “Chemical stability at pH 7.5 after 28 days at 40°C (% degradation)” value is 0.31%. The MRT in “PK in mice” (Mouse) was determined as 17.4. Further, the T½ in “PK in mice” (Mouse) was 12.6. This compound also displayed a bioavailability in “PK in mice” (male, NMRI, mouse, in vivo, sc) of 56%. In “PK in mice” (setting [4]), the clearance was 4 mL/h/kg. The half-life in “PK in mice” (setting [4]) is 12.6 h; in “PK in mice” (setting [5]), 14.1 h. In addition, the peak level in “PK in mice” (setting [5]) (Cmax) was 58 nM. Besides, the Tmax in the series “PK in mice” (setting [5]) was found to be 6 h.
